According to patent US12077503B2, “Substituted cyclic amides and their use as herbicides” (FMC CORPORATION, priority 2015, dated 2024):

Key:
Type in all cases: in vivo
[1] = test system: sedge, umbrella (small-flower umbrella sedge, Cyperus difformis); assay: Test B flooded paddy test; settings: Cyperus difformis, 250 g ai/ha, Flood; 0 to 100 scale where 0 is no effect and 100 is complete control; read-out: Sedge, Umbrella plant response rating
Procedure, shortened: (§1)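 Plants at 2-leaf stage flooded to 3 cm above soil, with compounds applied directly to paddy water and that depth maintained. Plants kept in greenhouse 13–15 d. Visual rating versus controls on a 0 (no effect) to 100 (complete control) scale.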

[2] = test system: barnyardgrass (Echinochloa crus-galli); assay: Test B flooded paddy test; settings: Echinochloa crus-galli, 250 g ai/ha, Flood; 0 to 100 scale where 0 is no effect and 100 is complete control; read-out: Barnyardgrass plant response rating
Procedure, shortened: as §1

rice (Oryra sativa) = assay: Test B flooded paddy test; settings: Oryza sativa, 250 g ai/ha, Flood; 0 to 100 scale where 0 is no effect and 100 is complete control; read-out: Rice plant response rating
Procedure, shortened: as §1

[3] = test system: ducksalad (Heteranthera limosa); assay: Test B flooded paddy test; settings: Heteranthera limosa, 250 g ai/ha, Flood; 0 to 100 scale where 0 is no effect and 100 is complete control; read-out: Ducksalad plant response rating
Procedure, shortened: as §1

[4] = test system: giant foxtail (Setaria faberii); assay: Test A postemergence; settings: Setaria faberi, post-emergence, 240 h, Postemergence, read-out: Foxtail, Giant plant response rating (0 to 100 scale); for pest or weed control at 125 g/ha: 125 g ai/ha, visual rating about 10 d after treatment; for pest or weed control at 31 g/ha: 31 g ai/ha, 0 is no effect, 100 is complete control
Procedure, shortened: (§2)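 In a loam soil and sand blend, planted seeds got a preemergence directed soil spray, and young plants at the one- to two-leaf stage, 2–10 cm high, got a postemergence application; ~10 d greenhouse hold; injury rated visually, 0 = none, 100 = complete control.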

[5] = test system: ryegrass, Italian (Italian ryegrass, Lolium multiflorum); assay: Test A postemergence; settings: Lolium multiflorum, post-emergence, 240 h, Postemergence, read-out: Ryegrass, Italian plant response rating (0 to 100 scale); for pest or weed control at 125 g/ha: 125 g ai/ha, visual rating about 10 d after treatment; for pest or weed control at 31 g/ha: 31 g ai/ha, 0 is no effect, 100 is complete control
Procedure, shortened: as §2

[6] = test system: Galium (catchweed bedstraw, Galium aparine); assay: Test A postemergence; settings: Galium, post-emergence, 240 h, Postemergence, read-out: Galium plant response rating (0 to 100 scale); for pest or weed control at 125 g/ha: 125 g ai/ha, visual rating about 10 d after treatment; for pest or weed control at 31 g/ha: 31 g ai/ha, 0 is no effect, 100 is complete control
Procedure, shortened: as §2

[7] = test system: barnyardgrass (Echinochloa crus-galli); assay: Test A postemergence; settings: Echinochloa crus-galli, post-emergence, 240 h, Postemergence; for pest or weed control at 125 g/ha: 125 g ai/ha, visual rating about 10 d after treatment, read-out: Barnyardgrass plant response rating (0 to 100 scale, 0 no effect, 100 complete control); for pest or weed control at 31 g/ha: 31 g ai/ha, 0 is no effect, 100 is complete control, read-out: Barnyardgrass plant response rating (0 to 100 scale)
Procedure, shortened: as §2

Kochia (Kochia scoparia) [8] = assay: Test A postemergence; settings: Bassia scoparia, post-emergence, 240 h, Postemergence, read-out: Kochia plant response rating (0 to 100 scale); for pest or weed control at 125 g/ha: 125 g ai/ha, visual rating about 10 d after treatment; for pest or weed control at 31 g/ha: 31 g ai/ha, 0 is no effect, 100 is complete control
Procedure, shortened: as §2

[9] = test system: wheat (Triticum aestivum); assay: Test A postemergence; settings: Triticum aestivum, post-emergence, 240 h, Postemergence, read-out: Wheat plant response rating (0 to 100 scale); for plant injury at 125 g/ha: 125 g ai/ha, visual rating about 10 d after treatment; for plant injury at 31 g/ha: 31 g ai/ha, 0 is no effect, 100 is complete control
Procedure, shortened: as §2

[10] = test system: blackgrass (Alopecurus myosuroides); assay: Test A postemergence; settings: Alopecurus myosuroides, post-emergence, 240 h, Postemergence, read-out: Blackgrass plant response rating (0 to 100 scale); for pest or weed control at 125 g/ha: 125 g ai/ha, visual rating about 10 d after treatment; for pest or weed control at 31 g/ha: 31 g ai/ha, 0 is no effect, 100 is complete control
Procedure, shortened: as §2

corn (Zea mays) = assay: Test A postemergence; settings: Zea mays, post-emergence, 240 h, Postemergence, read-out: Corn plant response rating (0 to 100 scale); for plant injury at 125 g/ha: 125 g ai/ha, visual rating about 10 d after treatment; for plant injury at 31 g/ha: 31 g ai/ha, 0 is no effect, 100 is complete control
Procedure, shortened: as §2

[11] = test system: ragweed (common ragweed, Ambrosia elatior); assay: Test A postemergence; settings: Ambrosia artemisiifolia, post-emergence, 240 h, Postemergence, read-out: Ragweed plant response rating (0 to 100 scale); for pest or weed control at 125 g/ha: 125 g ai/ha, visual rating about 10 d after treatment; for pest or weed control at 31 g/ha: 31 g ai/ha, 0 is no effect, 100 is complete control
Procedure, shortened: as §2

[12] = test system: pigweed (Amaranthus retroflexus); assay: Test A postemergence; settings: Amaranthus retroflexus, post-emergence, 240 h, Postemergence, read-out: Pigweed plant response rating (0 to 100 scale); for pest or weed control at 125 g/ha: 125 g ai/ha, visual rating about 10 d after treatment; for pest or weed control at 31 g/ha: 31 g ai/ha, 0 is no effect, 100 is complete control
Procedure, shortened: as §2

[13] = test system: giant foxtail (Setaria faberii); assay: Test A preemergence; settings: Setaria faberi, pre-emergence, 240 h, 0 to 100 scale where 0 is no effect and 100 is complete control, read-out: Foxtail, Giant plant response rating; for pest or weed control at 31 g/ha: 31 g ai/ha, Preemergence; for pest or weed control at 125 g/ha: 125 g ai/ha, preemergence, visual injury rating, approximately 10 d
Procedure, shortened: as §2

[14] = test system: ryegrass, Italian (Italian ryegrass, Lolium multiflorum); assay: Test A preemergence; settings: Lolium multiflorum, pre-emergence, 240 h, 0 to 100 scale where 0 is no effect and 100 is complete control, read-out: Ryegrass, Italian plant response rating; for pest or weed control at 31 g/ha: 31 g ai/ha, Preemergence; for pest or weed control at 125 g/ha: 125 g ai/ha, preemergence, visual injury rating, approximately 10 d
Procedure, shortened: as §2

[15] = test system: barnyardgrass (Echinochloa crus-galli); assay: Test A preemergence; settings: Echinochloa crus-galli, pre-emergence, 240 h, 0 to 100 scale where 0 is no effect and 100 is complete control, read-out: Barnyardgrass plant response rating; for pest or weed control at 31 g/ha: 31 g ai/ha, Preemergence; for pest or weed control at 125 g/ha: 125 g ai/ha, preemergence, visual injury rating, approximately 10 d
Procedure, shortened: as §2

Kochia (Kochia scoparia) [16] = assay: Test A preemergence; settings: Bassia scoparia, pre-emergence, 240 h, 0 to 100 scale where 0 is no effect and 100 is complete control, read-out: Kochia plant response rating; for pest or weed control at 31 g/ha: 31 g ai/ha, Preemergence; for pest or weed control at 125 g/ha: 125 g ai/ha, preemergence, visual injury rating, approximately 10 d
Procedure, shortened: as §2

[17] = test system: ragweed (common ragweed, Ambrosia elatior); assay: Test A preemergence; settings: Ambrosia artemisiifolia, pre-emergence, 240 h, 0 to 100 scale where 0 is no effect and 100 is complete control, read-out: Ragweed plant response rating; for pest or weed control at 31 g/ha: 31 g ai/ha, Preemergence; for pest or weed control at 125 g/ha: 125 g ai/ha, preemergence, visual injury rating, approximately 10 d
Procedure, shortened: as §2

[18] = test system: pigweed (Amaranthus retroflexus); assay: Test A preemergence; settings: Amaranthus retroflexus, pre-emergence, 240 h, 0 to 100 scale where 0 is no effect and 100 is complete control, read-out: Pigweed plant response rating; for pest or weed control at 31 g/ha: 31 g ai/ha, Preemergence; for pest or weed control at 125 g/ha: 125 g ai/ha, preemergence, visual injury rating, approximately 10 d

Row | Structure (SMILES) | pest or weed control at 250 g/ha [1] [%] | pest or weed control at 250 g/ha [2] [%] | pest or weed control at 250 g/ha (rice (Oryra sativa)) [%] | pest or weed control at 250 g/ha [3] [%] | pest or weed control at 125 g/ha [4] [%] | pest or weed control at 31 g/ha [4] [%] | pest or weed control at 125 g/ha [5] [%] | pest or weed control at 31 g/ha [5] [%] | pest or weed control at 125 g/ha [6] [%] | pest or weed control at 31 g/ha [6] [%] | pest or weed control at 125 g/ha [7] [%] | pest or weed control at 31 g/ha [7] [%] | pest or weed control at 125 g/ha (Kochia (Kochia scoparia) [8]) [%] | pest or weed control at 31 g/ha (Kochia (Kochia scoparia) [8]) [%] | plant injury at 125 g/ha [9] [%] | plant injury at 31 g/ha [9] [%] | pest or weed control at 125 g/ha [10] [%] | pest or weed control at 31 g/ha [10] [%] | plant injury at 125 g/ha (corn (Zea mays)) [%] | plant injury at 31 g/ha (corn (Zea mays)) [%] | also measured
1 | O=C1NC[C@H](c2cccc(C(F)(F)F)c2)[C@H]1C(=O)Nc1ccccc1-n1cncn1 [Compound 1290] | 0 | 0 | 10 | 0 | 0 | 0 | 0 | 0 | 0 | 0 | 0 | 0 | 0 | 0 | 0 | 0 | 0 | 0 | 0 | 0 | pest or weed control at 125 g/ha [11]: 0%; pest or weed control at 31 g/ha [11]: 0%; pest or weed control at 125 g/ha [12]: 0%; pest or weed control at 31 g/ha [12]: 0%; pest or weed control at 31 g/ha [13]: 0%; pest or weed control at 125 g/ha [13]: 0%; pest or weed control at 31 g/ha [14]: 0%; pest or weed control at 125 g/ha [14]: 0%; pest or weed control at 31 g/ha [15]: 0%; pest or weed control at 125 g/ha [15]: 0%; pest or weed control at 31 g/ha (Kochia (Kochia scoparia) [16]): 0%; pest or weed control at 125 g/ha (Kochia (Kochia scoparia) [16]): 0%; pest or weed control at 31 g/ha [17]: 0%; pest or weed control at 125 g/ha [17]: 0%; pest or weed control at 31 g/ha [18]: 0%; pest or weed control at 125 g/ha [18]: 0%
2 | O=C(Nc1ccc(F)c(F)c1F)[C@H]1C(=O)N(CC(F)F)C[C@@H]1c1cccc(C(F)(F)F)c1 [Compound 1297] | 0 | 0 | 30 | 0 | 20 | 0 | 0 | 0 | 0 | 0 | 20 | 0 | 0 | 0 | 0 | 0 | 0 | 0 | 0 | 0 | pest or weed control at 125 g/ha [11]: 0%; pest or weed control at 31 g/ha [11]: 0%; pest or weed control at 125 g/ha [12]: 0%; pest or weed control at 31 g/ha [12]: 0%; pest or weed control at 31 g/ha [13]: 0%; pest or weed control at 125 g/ha [13]: 80%; pest or weed control at 31 g/ha [14]: 0%; pest or weed control at 125 g/ha [14]: 0%; pest or weed control at 31 g/ha [15]: 20%; pest or weed control at 125 g/ha [15]: 20%; pest or weed control at 31 g/ha (Kochia (Kochia scoparia) [16]): 0%; pest or weed control at 125 g/ha (Kochia (Kochia scoparia) [16]): 0%; pest or weed control at 31 g/ha [17]: 0%; pest or weed control at 125 g/ha [17]: 0%; pest or weed control at 31 g/ha [18]: 0%; pest or weed control at 125 g/ha [18]: 0%
